According to PubChem BioAssay (NCI):
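Each compound was tested at five concentrations against cells in 96-well plates for 48 hours. The concentration for full growth arrest is given as TGI.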

Columns and labels:
Test in all cases: growth of human tumour cells (NCI), 48 h
[1] = tested on: 786-0 renal
[2] = tested on: A549 NSCLC
[3] = tested on: COLO 205 colon
[4] = tested on: HCC-2998 colon
[5] = tested on: NCI-H23 lung
[6] = tested on: OVCAR-4 ovarian
[7] = tested on: RXF 393 renal
[8] = tested on: SF-539 CNS
[9] = tested on: SN12C renal
[10] = tested on: UACC-257 melanoma

SMILES | TGI [1] [µM] | TGI [2] [µM] | TGI [3] [µM] | TGI [4] [µM] | TGI [5] [µM] | TGI [6] [µM] | TGI [7] [µM] | TGI [8] [µM] | TGI [9] [µM] | TGI [10] [µM]
NC(=O)CC(N=C1C(=O)OC(C(O)CO)C1=NC(CC(N)=O)C(=O)O)C(=O)O (stereo not given) | > 100 | > 100 | > 100 | > 100 | > 100 | > 100 | > 100 | > 100 | > 100 | > 100
Nc1ccc(Oc2ccc(C34CC5CC6C3CC3CC4C(C5)C6(c4ccc(Oc5ccc(N)c(O)c5)cc4)C3)cc2)cc1O | 14.9 | 12.9 | 2.85 | 7.57 | 31.2 | 22.2 | 27 | 0.652 | 11.4 | 34.7
c1ccc(-c2cc(-c3cccs3)c(-c3cccs3)o2)cc1 | > 100 | > 100 | > 100 | > 100 | > 100 | > 100 | > 100 | > 100 | > 100 | > 100
Clc1c(C(Cl)(Cl)Cl)nsc1N1CCCCC1 | 39.2 | > 100 | 30.5 | 47.9 | 34.7 | > 100 | 32.3 | 68.5 | 80.9 | 64.7
CCc1nc2ccc(C(F)(F)F)cc2[nH]c1=O | > 100 | > 100 | > 100 | > 100 | > 100 | > 100 | > 100 | > 100 | > 100 | > 100
